This is an account of results in paper PMC4747383, “Design of a peptidic inhibitor that targets the dimer interface of a prototypic galectin” (Oncotarget, 2015).

Entries after “also recorded” stand apart in the source; their conditions may differ. No end group written: not given here.

Experiment [1] relates to Jurkat T cells. Description: hGal-7-induced apoptosis of Jurkat T cells, PARP-1 cleavage (Western blot). It counts as cell-based. The note with it: hGal-7 pre-incubated with peptide, then Jurkat cells 4 h at 37°C, serum-free RPMI, Supplementary Fig. S3: peptide 200 μM. How it is done: (§1) Apoptosis was measured by Western blot analysis of PARP-1 cleavage. The PACAP28–38 was used as a control. β-actin was used as a loading control. B. Flow cytometric analysis of Jurkat T cells with stained Annexin V (FL1) and propidium iodide-PI (FL3) following binding of recombinant hGal-7 with or without hGal-7(129–135). Cells in the lower right quadrant are representative of annexin V-positive/PI-negative, or early apoptotic cells. Cells in the upper right quadrant indicate annexin V-positive/PI-positive, or late apoptotic cells. C. Histogram showing the percentages of annexin V-positive Jurkat T cells obtained by adding the percentages of cells found in the lower and upper right quadrants. Results are representative of three independent experiments. Error bars represent standard deviation.
For the apoptosis tests, whole-cell extracts were homogenized and resuspended in RIPA buffer (Thermo Fisher Scientific, Rockford, IL, USA) containing protease inhibitors (Roche, Laval, QC, Canada). Equal amounts of whole-cell extracts (25 μg) were separated on SDS-PAGE and transferred onto nitrocellulose membranes (Bio-Rad Laboratories). The membranes were first blocked with 5% milk [w/v] in TBS/0.5% Tween 20 [v/v] for 1 h at room temperature and subsequently blotted overnight in a solution of TBS containing 3% BSA [w/v] and 0.5% Tween 20 [v/v]. The following antibodies were used: a rabbit anti-poly-(ADP-ribose) polymerase (PARP)-1 (p25) polyclonal antibody (1:5000; Epitomics, Burlingame, CA, USA) and a mouse anti-β-actin (1:10000; Sigma-Aldrich, St. Louis, MO, USA). Secondary antibodies consisted of horseradish peroxidase-conjugated donkey anti-rabbit (GE Healthcare, Buckinghamshire, England) and sheep anti-mouse (GE Healthcare) IgG. Detection was performed using the enhanced chemiluminescence method (GE Healthcare). […]
concentrations of recombinant human gaI-7 were pre-incubated with the hGaI-7129–135 (200 μM) prior to its addition to A. Jurkat T cells or B. PBMCs. Apoptosis wa, measured after 4 h at 37°C in serum·free conditions. […]
In general terms: A western blot detects proteins with antibodies after separation by electrophoresis.

Experiment [2] has as its system Jurkat T cells. Description: hGal-7-induced apoptosis of Jurkat T cells, Annexin V/PI flow cytometry. It counts as cell-based. The following applies: hGal-7 and peptide pre-incubated 1 h at 4°C, cells 4 h at 37°C, serum free RPMI 1640, three independent experiments. How it is done:
as §1
Apoptosis was measured by flow cytometry using FITC-labeled Annexin V (Biolegend, San Diego, CA, USA) and propidium iodide (PI). Briefly, the corresponding dilutions of recombinant hGal-7 and hGal-7(129–135) peptides were pre-incubated for 1 h at 4°C in serum free RPMI 1640 medium. 2.5 × 10^5 Jurkat cells were then harvested in the same medium and incubated with their corresponding dilutions at 37°C for 4 h. Cells were washed once in PBS and once in binding buffer (0.01 M HEPES, 0.14 M NaCl, 2.5 mM CaCl2, pH 7.4). Cells were then incubated for 15 min with Annexin V in the dark at room temperature. A total of 400 μL of binding buffer containing 0.25 μg/mL propidium iodide was added to the cells before analysis by flow cytometry.
For orientation: In flow cytometry, cells or beads pass a laser one at a time.

“PACAP(28–38): an inactive fragment of the human Pituitary Adenylate Cyclase-Activating Polypeptide (PACAP) (GKRYKQRVKNK-NH2; ends and bridges not checked; UniProt P18509 159-169, looked up, fragment)”: in the experiment on Jurkat T cells [1], the “inhibition of hGal-7-induced apoptosis in Jurkat T cells (PARP-1 cleavage)” value was “No such effect was observed with the control peptide”. The “hGal-7-induced apoptosis of Jurkat T cells (Annexin V/PI)” value in the experiment with Jurkat T cells [2] is “a slight increase in apoptosis is observed”.

For the substance “H-LDSVRIP-NH2 [hGal-7(129–135), peptide corresponding to hGal-7 segment between residues 129–135]”, the “inhibition of hGal-7-induced apoptosis in Jurkat T cells (PARP-1 cleavage)” value was “inhibited the ability of hGal-7 to induce apoptosis in Jurkat T cells; also recorded: dose-dependent” in the experiment with Jurkat T cells [1] and “decreases gaI-7-induced apoptosis” with Jurkat T cells [1] (listed as hGaI-7129–135). Moreover, the “hGal-7-induced apoptosis of Jurkat T cells (Annexin V/PI)” value in the experiment on Jurkat T cells [2] is reported as “This effect on apoptosis was confirmed by flow cytomtery”; in the experiment with Jurkat T cells [2] (listed as hGal-7 (129–135)), “Apoptotic levels of Jurkat T cells induced by hGal-7 were decreased”.
